System: pro-inflammatory cytokines in the BALF
Assay: Multiplex analysis of cytokine levels in BALF, murine LPS ARDS model
Assay type: in vivo, mouse
Conditions: for IL1-alpha level in BALF / IP-10 level in BALF / MIG level in BALF: in pg/mL (unit assumed)
Description: C57B16/N mice were obtained from Charles River Laboratories (Montreal, Quebec). Male mice, 20-25 g of body weight, were used throughout the studies. Animals were housed in specific pathogen[…]free conditions, and all experiments were approved by Institutional Animal Care and Use Committee (IPST_SL20200402-1). Animal studies are reported in compliance with […] guidelines.
All delivered mice were kept for one week as an acclimatization period prior to performing any experiments. Animals were housed in a maximum of two mice per cage under a 12[…]h light/12[…]h dark cycle at a temperature of ˜20-22° C. and 40-60% humidity. Food and water were available ad libitum. Each cage of mice was blindly assigned for different treatments or maintained as a control group according to the experimental design. The individual who carried out the experiments was not blinded as to treatment, but data analysis and experiments were otherwise blinded to avoid any bias.
In the ARDS group, mice received Escherichia coli O111:B4 lipopolysaccharide (50 μg in 0.05 mL saline, i.t.), while, in the control group, the animals received an instillation of saline (0.05 mL, i.t.). For intratracheal instillation, mice were slightly anesthetized with isoflurane.
The lipid SPPCT-800 was dissolved in water (low dose—2 mg/ml; high dose—20 mg/ml). For the 24-hour study, two treatment approaches were used. Mice received a single dose of SPPCT-800 (200 mg/kg, per gavage) as prevention (30 minutes before the LPS instillation), or as a single dose of either 20 mg/kg or 200 mg/kg as therapy (3-hour after the LPS instillation). For the 72-hour study, mice received a total of 8 treatments of SPPCT-800 (200 mg/kg) starting at 3-hour after the LPS instillation. Disease progression in mice was assessed by the evaluation of pulmonary functions, blood oxygen saturation, and body weight change. On the terminal day of each study (24 hours or 72 hours), measurement of cytokine levels in the plasma and BALF, and histopathology evaluations were done.
Differential Cell Counts in BALF. The left lung was clamped while 0.9 mL of cold PBS 1×, Protease Inhibitor 1× (SigmaFast®) solution (3×300 μL) was injected so bronchoalveolar lavage fluid (BALF) from the right lobe of the lungs could be collected. The protein assay was performed according to the manufacturer's instruction BCA Protein Assay (Pierce™-#23227). Briefly, a dilution factor of 5 was used (1 part of BALF: 4 part of PBS 1×). 10 μL, of the diluted sample was added into the microplate wells. 200 μL of the working reagent was added into each well. The plate was covered, incubated at 37° C. for 30 minutes. After a cool-down period, the absorbance at 562 nm was rapidly measured using a monochromatic spectrophotometer (SpectraMAX ® plus—Molecular Devices). The total BALF protein content was reported by multiplying the protein concentration by the dilution factor, and then multiplying by the total of BALF volume collected.
Multiplex analysis of mediators. The inventors quantified 31 different mediators in the BALF and plasma by using a Discovery Assay® (Mouse Cytokine and Chemokine Array 31-Plex (MD31), Eve Technologies Corp, Calgary, AB, Canada). The multiplex assay was performed at Eve Technologies using the Bio-Plex™ 200 system (Bio-Rad Laboratories, Inc., Hercules, CA, USA) and a Milliplex Mouse Cytokine/Chemokine kit (Millipore, St. Charles, MO, USA) according to Eve Tech protocol. The 31-plex consisted of Eotaxin, G-CSF, GM-CSF, IFN-γ, IL-1α, IL-1β, IL-2, IL-3, IL-4, IL-5, IL-6, IL-7, IL-9, IL-10, IL-12 (p40), IL-12 (p70), IL-13, IL-15, IL-17, IP-10, KC, LIF, MCP-1, M-CSF, MIG, MIP-1α, MIP-1β, MIP-2,RANTES, TNFα, and VEGF. The assay sensitivities of these markers range from 0.1 pg/mL to 33.3 pg/mL. Individual analytes' values and other assay details are available on Eve Technologies' website and in the Milliplex protocol.
Statistical Analysis. Results are expressed as means±SEM. […]

[1] = 24-hours, Pre: SPP4040 30 minutes before LPS
[2] = 24-hours, Thera: SPP4040 3 hours after LPS
[3] = 72-hours, Thera: eight SPP4040 injections over 72 hours after LPS

## CCCCCCCCCCCCCC(=O)OCC(COP(=O)([O-])OCC(COC(=O)CCC)OC(=O)CCC)OC(=O)CCCCCCCCCCCCC.CCCCCCCCCCCCCC(=O)OCC(COP(=O)([O-])OCC(COC(=O)CCC)OC(=O)CCC)OC(=O)CCCCCCCCCCCCC.[Mg+2] (stereo not shown) [SPPCT-800]
[1]
  Eotaxin level in BALF: 10 ± 1
  G-CSF level in BALF: 6468 ± 381
  GM-CSF level in BALF: 26 ± 5
  IFN gamma level in BALF: 2 ± 1
  IL1-beta level in BALF: 69 ± 9
  IL2 level in BALF: 1.5 ± 0.2
  IL3 level in BALF: 0.4 ± 0.1
  IL4 level in BALF: 0.08 ± 0.01
  IL5 level in BALF: 10 ± 3
  IL6 level in BALF: 856 ± 188
  IL7 level in BALF: 1.7 ± 0.3
  IL9 level in BALF: 7.0 ± 0.3
  IL10 level in BALF: 1.4 ± 0.3
  IL12 (p40) level in BALF: 1.6 ± 0.3
  IL12 (p70) level in BALF: 7.4 ± 1.0
  IL13 level in BALF: 0.7 ± 0.1
  IL15 level in BALF: 5.1 ± 0.8
  IL17 level in BALF: 8.3 ± 3.2
  KC level in BALF: 622 ± 89
  LIF level in BALF: 38 ± 8
  LIX level in BALF: 94 ± 6
  M-CSF level in BALF: 21 ± 3
  MCP-1 level in BALF: 462 ± 103
  MIP-1alpha level in BALF: 323 ± 52
  MIP-1beta level in BALF: 801 ± 208
  MIP-2 level in BALF: 771 ± 107
  RANTES level in BALF: 45 ± 6
  TNF-alpha level in BALF: 91 ± 32
  VEGF level in BALF: 33 ± 2
  IL1-alpha level in BALF: 183 ± 25
  IP-10 level in BALF: 125 ± 10
  MIG level in BALF: 6.8 ± 1.5
[2]
  Eotaxin level in BALF: 14 ± 3
  G-CSF level in BALF: 7060 ± 853
  GM-CSF level in BALF: 46 ± 9
  IFN gamma level in BALF: 3 ± 1
  IL1-beta level in BALF: 103 ± 18
  IL2 level in BALF: 1.5 ± 0.3
  IL3 level in BALF: 0.5 ± 0.1
  IL4 level in BALF: 0.10 ± 0.01
  IL5 level in BALF: 10 ± 2
  IL6 level in BALF: 850 ± 212
  IL7 level in BALF: 1.7 ± 0.2
  IL9 level in BALF: 8.8 ± 1.3
  IL10 level in BALF: 1.4 ± 0.3
  IL12 (p40) level in BALF: 2.0 ± 0.3
  IL12 (p70) level in BALF: 6.0 ± 1.0
  IL13 level in BALF: 1.1 ± 0.2
  IL15 level in BALF: 3.1 ± 0.7
  IL17 level in BALF: 13.6 ± 5.6
  KC level in BALF: 1017 ± 140
  LIF level in BALF: 39 ± 12
  LIX level in BALF: 67 ± 20
  M-CSF level in BALF: 27 ± 6
  MCP-1 level in BALF: 494 ± 103
  MIP-1alpha level in BALF: 564 ± 132
  MIP-1beta level in BALF: 1924 ± 812
  MIP-2 level in BALF: 1054 ± 106
  RANTES level in BALF: 46 ± 6
  TNF-alpha level in BALF: 153 ± 32
  VEGF level in BALF: 34 ± 2
  IL1-alpha level in BALF: 331 ± 67
  IP-10 level in BALF: 163 ± 33
  MIG level in BALF: 6.6 ± 2.0
72-hour study, p=0.0613
  TNF-α levels in the BALF (in words): markedly reduced
[3]
  Eotaxin level in BALF: 6 ± 2
  G-CSF level in BALF: 1233 ± 572
  GM-CSF level in BALF: 9 ± 1
  IFN gamma level in BALF: 12 ± 1
  IL1-beta level in BALF: 89 ± 24
  IL2 level in BALF: 1.7 ± 0.4
  IL3 level in BALF: 0.5 ± 0.2
  IL4 level in BALF: 0.24 ± 0.05
  IL5 level in BALF: 0.4 ± 0.1
  IL6 level in BALF: 276 ± 151
  IL7 level in BALF: 2.0 ± 0.5
  IL9 level in BALF: 8.5 ± 1.6
  IL10 level in BALF: 1.1 ± 0.5
  IL12 (p40) level in BALF: 6.0 ± 1.2
  IL12 (p70) level in BALF: 15.7 ± 3.9
  IL13 level in BALF: 1.1 ± 0.2
  IL15 level in BALF: 4.8 ± 2.6
  IL17 level in BALF: 53.2 ± 26.9
  KC level in BALF: 216 ± 15
  LIF level in BALF: 11 ± 7
  LIX level in BALF: 25 ± 18
  M-CSF level in BALF: 11 ± 1
  MCP-1 level in BALF: 84 ± 34
  MIP-1alpha level in BALF: 1676 ± 554
  MIP-1beta level in BALF: 1561 ± 440
  MIP-2 level in BALF: 2649 ± 898
  RANTES level in BALF: 57 ± 20
  TNF-alpha level in BALF: 62 ± 17
  VEGF level in BALF: 11 ± 3
  IL1-alpha level in BALF: 576 ± 169
  IP-10 level in BALF: 1583 ± 385
  MIG level in BALF: 749.7 ± 186.7
At 24 hours
  MIP-1α and MIP 1-β in the BALF (in words): Suppressive effects
At 24 hours, 200 mg/kg preventive, 20 mg/kg therapeutic and 200 mg/kg therapeutic, P<0.001
  GM-CSF in the BALF (in words): highly significant depressions
At 24 hours, P<0.001
  IFN-γ levels in the BALF (in words): profoundly depressed
At 24 hours, P=0.0959
  TNF-α in the BALF (in words): markedly reduced
At 24 hours, with the exception of IL-6
  IL-1β, IL-2, IL-3, IL-4, IL-5, IL-7, IL-9, IL-10, IL-12 (p40), IL-12 (p70), IL-13 and IL-15 in the BALF (in words): major reductions
At 72 hours
  IFN-γ levels in the BALF (in words): Large reductions
  MCP-1 in the BALF (in words): inhibited
At 72 hours, P<0.001
  GM-CSF in the BALF (in words): significant decreases
mouse, in vivo
  G-CSF, VEGF, KC, LIF, LIX and M-CSF in the BALF (in words): suppressed

From patent publication US20240091242A1, “LIPIDS THAT REDUCE LUNG DAMAGE, IMPROVE PULMONARY FUNCTION AND DECREASE PRO-INFLAMMATORY CYTOKINES” (Signpath Pharma, Inc., priority 2021, published 2024)
